This is an account of results in publication PMC7897990, “TriTOX: A novel Trichomonas vaginalis assay platform for high-throughput screening of compound libraries” (International Journal for Parasitology: Drugs and Drug …, 2021).

For this test, the system named is Trichomonas vaginalis G3 trophozoites. The following applies: for T.vaginalis_Absorbance_Rep1: replicate 1, raw absorbance; for T.vaginalis_Absorbance_Rep2: replicate 2, raw absorbance; for T. vaginalis HTS result in words: 384-well, 25 μL, 10,000 cells/mL, 48 h, biological duplicates, hit = >50% inhibition.
The mark [1] stands for this setting: HTS replicate 1, parasite screen 1 µg/mL.
Where [2] appears, read: HTS replicate 2, parasite screen 1 µg/mL.
Setting [3] is: HTS, parasite screen at 1 µg/mL, replicate 1.
The mark [4] stands for this setting: HTS, parasite screen at 1 µg/mL.
[5] abbreviates: HTS, parasite screen at 1 µg/mL, replicate 2.

Where two headings read alike, the source gives them in different places. Positions of bridges follow the written chain, without caps; N, C: chain ends. Non-standard residues stand in square brackets, D forms with d. Residues, ends and D or L forms follow the SMILES beside them. *: point of attachment. NMePhe(4-NMe2) = CN[C@@H](Cc1ccc(N(C)C)cc1)C(=O)O; Pip(4-oxo) = O=C1CCN[C@H](C(=O)O)C1; Picolinoyl(3-OH) = O=C(c1ncccc1O)*; Phg = N[C@H](C(=O)O)c1ccccc1; dAbu = CC[C@@H](N)C(=O)O

In turn, `C[C@@H](O)CCCCCCCCCCCCCc1cc(O)cc(O)c1C(=O)O` [Phanerosporic acid] returned a T.vaginalis_%inb_Rep1 under setting [1] of 18.46%. The molecule also returned a T.vaginalis_%inb_Rep2 under setting [2] of 9.81%.
For `CC1(C)CC[C@]2(C)CC[C@]3(C)C4=CC[C@H]5C(C)(C)[C@@H](O)CC[C@]5(C)[C@H]4CC[C@@]3(C)[C@@H]2C1` [Multiflorenol] the same measures were 10.55% and 11.42%.
The molecule `CC[C@H]1CCC[C@H](O)[C@@H](C)C(=O)C2=C[C@H]3[C@@H]4C[C@H](O)C[C@H]4CC[C@H]3[C@@H]2CC(=O)O1` [Dihydrospinosyn A aglycone] returned a T.vaginalis_%inb_Rep1 under setting [3] of 13.89%. Under setting [4], this molecule displayed a T.vaginalis_Absorbance_Rep1 of 0.967 and a T.vaginalis_Absorbance_Rep2 of 0.794. Further, the T.vaginalis_%inb_Rep2 under setting [5] worked out at 12.58%.
`C/C1=C\C(C)C(O)/C(C)=C/C(O[C@H]2O[C@H](CO)[C@@H](O)[C@H](O)[C@@H]2O)C(O)C(C)C(O)CC(O)/C=C\C(C)C(O)C(C)CCC(O)CC(O)C(C)C(O)C(C)C(O)CC(O)CC(O)C(C)C(C(C)CCCCCCN)OC(=O)CCCCCC(O)C(C)C(O)CC/C=C/C(C)C1O` (stereo partly drawn) [Monazomycin] displayed a T.vaginalis_%inb_Rep1 under setting [1] of 9.53%. Besides, the T.vaginalis_%inb_Rep2 under setting [2] worked out at 13.73%.
`CC1=C[C@H]2C(=O)O[C@H]3C[C@@H](C/C=C(\C)[C@@H](O)[C@@H](C)/C=C/C=C4\CO[C@H]([C@@H]1O)[C@@]42O)O[C@@]1(C=C[C@H](C)[C@@H](C2CCCCC2)O1)C3` [Doramectin aglycone] displayed a T.vaginalis_%inb_Rep1 under setting [3] of 13.62%. Further, under setting [4], the T.vaginalis_Absorbance_Rep1 came to 0.962 and the T.vaginalis_Absorbance_Rep2 is recorded as 0.792. Further, under setting [5], the T.vaginalis_%inb_Rep2 amounted to 12.44%.
In turn, `Cc1ccc2c(c1O)C(=O)c1c(cc(O)c(C(=O)O)c1C)[C@]2(C)OO[C@@]1(C)c2cc(O)c(C(=O)O)c(C)c2C(=O)c2c1ccc(C)c2O` [Oxanthromicin, (+)] registered a T.vaginalis_%inb_Rep1 under setting [1] of 15.31%. For the same molecule, under setting [2], the T.vaginalis_%inb_Rep2 turned out to be 5.45%.
For `NC(=O)c1cccc2nc3ccccc3nc12` [Oxychloroaphine] the same measures were 11.41% and 13.92%.
Under setting [4], Elaiophylin returned a T.vaginalis_Absorbance_Rep1 of 0.954 and a T.vaginalis_Absorbance_Rep2 of 0.689.
Turning to `COc1cc(CC2C(=O)OCC2Cc2ccc3c(c2)OCO3)ccc1O` (stereo not drawn) [Pluviatolide], the T.vaginalis_%inb_Rep1 under setting [1] was determined as 12.12%. Besides, the T.vaginalis_%inb_Rep2 under setting [2] was determined as 14.37%.
`O=C(O)c1c(=O)cccc2ssc12` [tropodithietic acid, reference compound]: the “T. vaginalis HTS result in words” value was “partial hits”. Also, the T.vaginalis_%inb_Rep1 under setting [3] came out at 11.01%. This molecule had a T.vaginalis_%inb_Rep2 under setting [5] of 97.50%.
`CC(=O)OC1CCC2(C)C3=C(CCC2C1(C)C)C1(C)CCC(C(C)CCC=C(C)C)C1(C)CC3` (stereo not drawn) [Euphol acetate] had a T.vaginalis_%inb_Rep1 under setting [3] of 13.30%. For the same molecule, under setting [4], the T.vaginalis_Absorbance_Rep1 is on record as 0.956 and the T.vaginalis_Absorbance_Rep2 is 0.8. The same molecule registered a T.vaginalis_%inb_Rep2 under setting [5] of 13.02%.
Turning to `C/C=C(\C)c1c(Cl)c(OC)c(C)c2c1Oc1c(Cl)c(O)c(Cl)c(C)c1C(=O)O2` [Nidulin], the T.vaginalis_%inb_Rep1 under setting [1] worked out at 13.95%. For the same molecule, the T.vaginalis_%inb_Rep2 under setting [2] was 15.46%.
Regarding `CC1=C[C@H]2C(=O)O[C@H]3C[C@@H](C/C=C(\C)C[C@@H](C)/C=C/C=C4\CO[C@H]([C@@H]1O)[C@@]42O)O[C@@]1(CC[C@H](C)[C@@H](C)O1)C3` [Milbemycin A3], under setting [1], the T.vaginalis_%inb_Rep1 is listed as 11.05%. The T.vaginalis_%inb_Rep2 under setting [2] stood at 8.85%.
In turn, `CC1=C[C@H]2O[C@@H]3[C@H](O)[C@@H](O)[C@](C)([C@@]2(CO)[C@H](O)C1=O)[C@]31CO1` [Nivalenol] gave a T.vaginalis_%inb_Rep1 of 9.96% and a T.vaginalis_%inb_Rep2 of 14.26%.
Under setting [3], `C/C=C(\C)c1cc(O)c(C)c2c1Oc1cc(O)cc(C)c1C(=O)O2` [Unguinol] showed a T.vaginalis_%inb_Rep1 of 8.70%. Further, under setting [5], the T.vaginalis_%inb_Rep2 came to 4.39%.
`CCCNC[C@]1(O)[C@H](C)O[C@@H](O[C@H]2[C@H](C)[C@@H](O[C@@H]3O[C@H](C)C[C@H](N(C)C)[C@H]3O)[C@](C)(O)C[C@@H](C)CN[C@H](C)[C@@H](O)[C@](C)(O)[C@@H](CC)OC(=O)[C@@H]2C)C[C@@]1(C)OC` [Tulathromycin] gave a T.vaginalis_%inb_Rep1 under setting [3] of 10.12%. Under setting [5], the T.vaginalis_%inb_Rep2 was determined as 14.75%.
The molecule `CN(C)C1C(=O)C(C(N)=O)=C(O)C2(O)C(=O)C3=C(O)c4c(O)ccc(Cl)c4C(C)(O)C3CC12.Cl` (stereo not drawn) [Epichlortetracycline hydrochloride] came in with a T.vaginalis_%inb_Rep1 under setting [3] of 7.49%. Under setting [4], this molecule yielded a T.vaginalis_Absorbance_Rep1 of 0.848 and a T.vaginalis_Absorbance_Rep2 of 0.672. This molecule showed a T.vaginalis_%inb_Rep2 under setting [5] of 3.76%.
Regarding ikarugamycin [reference compound], the “T. vaginalis HTS result in words” value was “supported the anti-trichomonal activity”.
With `COc1cccc2nc3c(OC)cccc3nc12` [Dimethoxyphenazine, 1,6-], the T.vaginalis_%inb_Rep1 under setting [3] is 12.87%. Under setting [4], the T.vaginalis_Absorbance_Rep1 is on record as 0.948 and the T.vaginalis_Absorbance_Rep2 is recorded as 0.815. This molecule showed a T.vaginalis_%inb_Rep2 under setting [5] of 14.10%.
Under setting [3], `CC[C@H]1NC(=O)[C@@H](NC(=O)c2ncccc2O)[C@@H](C)OC(=O)[C@H](c2ccccc2)NC(=O)[C@@H]2CC(=O)CCN2C(=O)[C@H](Cc2ccc(N(C)C)cc2)N(C)C(=O)[C@@H]2CCCN2C1=O` [Virginiamycin B] ({Picolinoyl(3-OH)}-T[dAbu]P[NMePhe(4-NMe2)][Pip(4-oxo)][Phg]; ester 1-C) registered a T.vaginalis_%inb_Rep1 of 8.39%. Under setting [5], this molecule had a T.vaginalis_%inb_Rep2 of 11.09%.
Enniatin A1: under setting [4], the T.vaginalis_Absorbance_Rep1 turned out to be 0.98 and the T.vaginalis_Absorbance_Rep2 stood at 0.8.
In turn, `CCC(C)C1NC(=O)c2c1n(C)c1ccccc1c2=O` (stereo not drawn) [Quinolactacin A1] came in with a T.vaginalis_%inb_Rep1 under setting [1] of 10.96%. Under setting [2], this molecule registered a T.vaginalis_%inb_Rep2 of 16.33%.
Consider Milbemycin oxime, for which the T.vaginalis_%inb_Rep1 under setting [1] is reported as 12.53%. Further, the T.vaginalis_%inb_Rep2 under setting [2] is recorded as 12.96%.
Take `CN(C)[C@@H]1C(O)=C(C(N)=O)C(=O)[C@@]2(O)C(O)=C3C(=O)c4c(O)cccc4[C@@](C)(O)[C@H]3C[C@@H]12` [BIA-T1334]: the T.vaginalis_%inb_Rep1 (parasite screen at 1 µg/mL, replicate 1) is 9.28%. The same molecule displayed a T.vaginalis_%inb_Rep2 (parasite screen at 1 µg/mL, replicate 2) of 5.48%.
In the case of `COC1=C(O)c2c(O)cc(C)c3c(O)cc(O)c(c23)C1=O` [Funalenone], the T.vaginalis_%inb_Rep1 under setting [3] was found to be 14.50%. Further, under setting [4], the T.vaginalis_Absorbance_Rep1 was 0.988 and the T.vaginalis_Absorbance_Rep2 was 0.837. The T.vaginalis_%inb_Rep2 under setting [5] worked out at 12.96%.
Consider `CN[C@@H]1C[C@H]2O[C@@](C)([C@@H]1OC)n1c3ccccc3c3c4c(c5c6ccccc6n2c5c31)C(=O)NC4` [staurosporine, reference compound], for which the “T. vaginalis HTS result in words” value is listed as “supported the anti-trichomonal activity”.
`C/C=C\C=C\[C@@H]1O[C@](O)([C@H](CO[C@H]2C[C@@H](OC)[C@@H](O[C@@H]3C[C@@H](OC)[C@@H](O[C@H]4C[C@H](OC)[C@H](O)[C@H](C)O4)[C@H](C)O3)[C@@H](C)O2)C(=O)NC/C=C/C=C(\C)[C@@H](OC)[C@H](C)[C@H]2C[C@H](O)[C@H](/C=C/C=C/C=C/C(=O)O)O2)[C@H](OC(=O)Cc2ccccc2)[C@H](O)C1(C)C` [Phenelfamycin E]: the T.vaginalis_%inb_Rep1 under setting [1] is reported as 11.16%. This molecule also had a T.vaginalis_%inb_Rep2 under setting [2] of 10.07%.
On the same counts, the results for `CC(=O)OC[C@@]1(C)[C@@H]2C[C@H](OC(C)=O)[C@@]3(C)Oc4cc(-c5ccccc5)oc(=O)c4[C@H](O)[C@@H]3[C@@]2(C)CC[C@@H]1OC(C)=O` [Phenylpyropene A] are 13.03% and 14.11%.
As for `C[C@@H]1[C@H](O)[C@@H](C)/C=C/C=C/CC/C=C/C=C/C=C/C=C/[C@H](O[C@@H]2O[C@H](C)[C@@H](O)[C@H](N)[C@@H]2O)C[C@@H]2O[C@](O)(C[C@@H](O)[C@H](O)CC[C@@H](O)C[C@@H](O)C[C@@H](O)CC(=O)O[C@H]1C)C[C@H](O)[C@H]2C(=O)O` [Nystatin A1], under setting [1], the T.vaginalis_%inb_Rep1 is 11.66%. The molecule further came in with a T.vaginalis_%inb_Rep2 under setting [2] of 11.87%.
With `CN[C@@H]1C[C@H]2O[C@@](C)([C@@H]1OC)n1c3ccccc3c3c4c(c5c6ccccc6n2c5c31)C(=O)NC4=O` [7-oxostaurosporine, reference compound], the “T. vaginalis HTS result in words” value was “active analogues”.
`CCC1OC2(CCC1C)CC1CC(CC=C(C)CC(C)C=CC=C3COC4C(=NO)C(C)=CC(C(=O)O1)C34O)O2` (stereo not drawn) [Milbemycin A4 oxime] had a T.vaginalis_%inb_Rep1 under setting [1] of 13.39%. Further, the T.vaginalis_%inb_Rep2 under setting [2] was determined as 13.53%.
The molecule `Cn1c(=O)c(=Cc2ccccc2)[nH]c(=O)c1=Cc1ccccc1` [Piperafizine A] had a T.vaginalis_%inb_Rep1 under setting [1] of 11.87%. Under setting [2], this molecule returned a T.vaginalis_%inb_Rep2 of 11.10%.
In the case of Pyripyropene A, under setting [1], the T.vaginalis_%inb_Rep1 worked out at 11.61%. Further, the T.vaginalis_%inb_Rep2 under setting [2] was 12.83%.
Under setting [3], `CCCCCC(=O)C(CCCC)c1oc(=O)c(CCCC)c(O)c1CCCC` (stereo not drawn) [Elasnin] returned a T.vaginalis_%inb_Rep1 of 13.95%. Under setting [4], this molecule registered a T.vaginalis_Absorbance_Rep1 of 0.968 and a T.vaginalis_Absorbance_Rep2 of 0.774. Besides, the T.vaginalis_%inb_Rep2 under setting [5] is 11.14%.
Turning to `O=C(O)C1CSC(c2ccccc2O)=N1` (stereo not drawn) [Dihydroaeruginoic acid], the T.vaginalis_%inb_Rep1 under setting [3] stood at 11.15%. Under setting [4], this molecule showed a T.vaginalis_Absorbance_Rep1 of 0.916 and a T.vaginalis_Absorbance_Rep2 of 0.798. Under setting [5], this molecule showed a T.vaginalis_%inb_Rep2 of 12.87%.
The molecule `COc1cc(O)c2c(c1)/C=C/CC(O)C(O)C(=O)/C=C/CC(C)OC2=O` (stereo not drawn) [Oxozeaenol, (5E)-7-] gave a T.vaginalis_%inb_Rep1 under setting [1] of 8.42%. Further, the T.vaginalis_%inb_Rep2 under setting [2] worked out at 13.66%.
As for `COc1c(Cl)c(O)c(Cl)c(C)c1C(=O)O[C@H]1[C@H](O)C[C@H](O[C@H]2[C@@H](O)CC(=O)O[C@@H]2C)O[C@@H]1C` [Flambalactone], the T.vaginalis_%inb_Rep1 under setting [3] worked out at 13.89%. For the same molecule, under setting [4], the T.vaginalis_Absorbance_Rep1 turned out to be 0.967 and the T.vaginalis_Absorbance_Rep2 turned out to be 0.807. For the same molecule, the T.vaginalis_%inb_Rep2 under setting [5] is reported as 13.52%.
